In patent US12077503B2, “Substituted cyclic amides and their use as herbicides” (FMC CORPORATION, priority 2015, dated 2024):

Columns and labels:
Type in all cases: in vivo
[1] = test system: wheat (Triticum aestivum); experiment: Test A postemergence; settings: Triticum aestivum, post-emergence, 240 h, Postemergence, read-out: Wheat plant response rating (0 to 100 scale)
Outline: (§1)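 Preemergence directed soil spray on seeded pots, or postemergence application to plants 2–10 cm, one- to two-leaf. Solvent mixture non-phytotoxic, with surfactant. Scored ~10 d later, visually, 0–100 vs untreated.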

Kochia (Kochia scoparia) [2] = experiment: Test A postemergence; settings: Bassia scoparia, post-emergence, 240 h, Postemergence, read-out: Kochia plant response rating (0 to 100 scale)
Outline: as §1

corn (Zea mays) = experiment: Test A postemergence; settings: Zea mays, post-emergence, 240 h, Postemergence, read-out: Corn plant response rating (0 to 100 scale)
Outline: as §1

[3] = test system: giant foxtail (Setaria faberii); experiment: Test A postemergence; settings: Setaria faberi, post-emergence, 240 h, Postemergence, read-out: Foxtail, Giant plant response rating (0 to 100 scale)
Outline: as §1

[4] = test system: pigweed (Amaranthus retroflexus); experiment: Test A postemergence; settings: Amaranthus retroflexus, post-emergence, 240 h, Postemergence, read-out: Pigweed plant response rating (0 to 100 scale)
Outline: as §1

[5] = test system: Galium (catchweed bedstraw, Galium aparine); experiment: Test A postemergence; settings: Galium, post-emergence, 240 h, Postemergence, read-out: Galium plant response rating (0 to 100 scale)
Outline: as §1

[6] = test system: ragweed (common ragweed, Ambrosia elatior); experiment: Test A postemergence; settings: Ambrosia artemisiifolia, post-emergence, 240 h, Postemergence, read-out: Ragweed plant response rating (0 to 100 scale)
Outline: as §1

[7] = test system: ryegrass, Italian (Italian ryegrass, Lolium multiflorum); experiment: Test A postemergence; settings: Lolium multiflorum, post-emergence, 240 h, Postemergence, read-out: Ryegrass, Italian plant response rating (0 to 100 scale)
Outline: as §1

[8] = test system: barnyardgrass (Echinochloa crus-galli); experiment: Test A postemergence; settings: Echinochloa crus-galli, post-emergence, 240 h, Postemergence
Outline: as §1

[9] = test system: blackgrass (Alopecurus myosuroides); experiment: Test A postemergence; settings: Alopecurus myosuroides, post-emergence, 240 h, Postemergence, read-out: Blackgrass plant response rating (0 to 100 scale)
Outline: as §1

[10] = test system: ducksalad (Heteranthera limosa); experiment: Test B flooded paddy test; settings: Heteranthera limosa, 250 g ai/ha, Flood; 0 to 100 scale where 0 is no effect and 100 is complete control; read-out: Ducksalad plant response rating
Outline: (§2)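 2-leaf plants; pots flooded 3 cm over soil; cpd added to paddy water; depth held; greenhouse 13–15 d; visual rating vs controls, 0 = no effect, 100 = complete control.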

[11] = test system: sedge, umbrella (small-flower umbrella sedge, Cyperus difformis); experiment: Test B flooded paddy test; settings: Cyperus difformis, 250 g ai/ha, Flood; 0 to 100 scale where 0 is no effect and 100 is complete control; read-out: Sedge, Umbrella plant response rating
Outline: as §2

[12] = test system: barnyardgrass (Echinochloa crus-galli); experiment: Test B flooded paddy test; settings: Echinochloa crus-galli, 250 g ai/ha, Flood; 0 to 100 scale where 0 is no effect and 100 is complete control; read-out: Barnyardgrass plant response rating
Outline: as §2

rice (Oryra sativa) = experiment: Test B flooded paddy test; settings: Oryza sativa, 250 g ai/ha, Flood; 0 to 100 scale where 0 is no effect and 100 is complete control; read-out: Rice plant response rating
Outline: as §2

Kochia (Kochia scoparia) [13] = experiment: Test A preemergence; settings: Bassia scoparia, pre-emergence, 240 h, 0 to 100 scale where 0 is no effect and 100 is complete control, read-out: Kochia plant response rating
Outline: as §1

[14] = test system: giant foxtail (Setaria faberii); experiment: Test A preemergence; settings: Setaria faberi, pre-emergence, 240 h, 0 to 100 scale where 0 is no effect and 100 is complete control, read-out: Foxtail, Giant plant response rating
Outline: as §1

[15] = test system: pigweed (Amaranthus retroflexus); experiment: Test A preemergence; settings: Amaranthus retroflexus, pre-emergence, 240 h, 0 to 100 scale where 0 is no effect and 100 is complete control, read-out: Pigweed plant response rating
[16] = test system: ragweed (common ragweed, Ambrosia elatior); experiment: Test A preemergence; settings: Ambrosia artemisiifolia, pre-emergence, 240 h, 0 to 100 scale where 0 is no effect and 100 is complete control, read-out: Ragweed plant response rating
Outline: as §1

[17] = test system: ryegrass, Italian (Italian ryegrass, Lolium multiflorum); experiment: Test A preemergence; settings: Lolium multiflorum, pre-emergence, 240 h, 0 to 100 scale where 0 is no effect and 100 is complete control, read-out: Ryegrass, Italian plant response rating
Outline: as §1

[18] = test system: barnyardgrass (Echinochloa crus-galli); experiment: Test A preemergence; settings: Echinochloa crus-galli, pre-emergence, 240 h, 0 to 100 scale where 0 is no effect and 100 is complete control, read-out: Barnyardgrass plant response rating
Outline: as §1

[19] = 125 g ai/ha, visual rating about 10 d after treatment
[20] = 31 g ai/ha, 0 is no effect, 100 is complete control
[21] = 125 g ai/ha, preemergence, visual injury rating, approximately 10 d

O=C1NC[C@H](c2cc(Cl)cc(Cl)c2)[C@H]1C(=O)Nc1cccc(F)c1F [Compound 1273]
30%: plant injury at 125 g/ha [1, 19] | pest or weed control at 250 g/ha [12]
50%: pest or weed control at 125 g/ha [5, 19] | pest or weed control at 31 g/ha ([8]; 31 g ai/ha, 0 is no effect, 100 is complete control, read-out: Barnyardgrass plant response rating (0 to 100 scale)) | pest or weed control at 125 g/ha (Kochia (Kochia scoparia) [13]; [21])
0%: plant injury at 31 g/ha [1, 20] | pest or weed control at 31 g/ha (Kochia (Kochia scoparia) [2]; [20]) | plant injury at 31 g/ha (corn (Zea mays); [20]) | pest or weed control at 31 g/ha [4, 20] | pest or weed control at 125 g/ha [6, 19] | pest or weed control at 31 g/ha [6, 20] | pest or weed control at 31 g/ha [7, 20] | pest or weed control at 31 g/ha [9, 20] | pest or weed control at 250 g/ha [11] | pest or weed control at 250 g/ha (rice (Oryra sativa)) | pest or weed control at 31 g/ha (Kochia (Kochia scoparia) [13]; 31 g ai/ha, Preemergence) | pest or weed control at 31 g/ha ([15]; 31 g ai/ha, Preemergence) | pest or weed control at 31 g/ha ([16]; 31 g ai/ha, Preemergence) | pest or weed control at 125 g/ha [16, 21] | pest or weed control at 31 g/ha ([17]; 31 g ai/ha, Preemergence)
60%: pest or weed control at 125 g/ha (Kochia (Kochia scoparia) [2]; [19]) | plant injury at 125 g/ha (corn (Zea mays); [19]) | pest or weed control at 31 g/ha [3, 20] | pest or weed control at 125 g/ha ([8]; 125 g ai/ha, visual rating about 10 d after treatment, read-out: Barnyardgrass plant response rating (0 to 100 scale, 0 no effect, 100 complete control)) | pest or weed control at 31 g/ha ([18]; 31 g ai/ha, Preemergence)
80%: pest or weed control at 125 g/ha [3, 19] | pest or weed control at 31 g/ha ([14]; 31 g ai/ha, Preemergence) | pest or weed control at 125 g/ha [18, 21]
20%: pest or weed control at 125 g/ha [9, 19] | pest or weed control at 125 g/ha [15, 21]
90%: pest or weed control at 250 g/ha [10] | pest or weed control at 125 g/ha [14, 21]
40%: pest or weed control at 125 g/ha [4, 19] | pest or weed control at 31 g/ha [5, 20] | pest or weed control at 125 g/ha [7, 19] | pest or weed control at 125 g/ha [17, 21]
